Experimental data published in patent US20250332300A1 (priority 2024, published 2025).
pIC50, pKd: −log10 of the molar value. Structures can show the parent of a compound that is named as a salt. Where two headings read alike, the source gives them in different places. Starred links: 1 amine or outer side, 2 acyl side, 3 side chain; linkers in the order of their positions; H or OH if unused. Positions of bridges follow the written chain, without caps; N, C: chain ends. Non-standard residues stand in square brackets, D forms with d. Residues, ends and D or L forms follow the SMILES beside them. *: point of attachment. Trp(5-OH) = N[C@@H](Cc1c[nH]c2ccc(O)cc12)C(=O)O; X9 = CN([C@@H](CCc1cccc(Cl)c1)C(=O)[*:2])[*:1]; NMePhe(4-F) = CN[C@@H](Cc1ccc(F)cc1)C(=O)O; β2hAla(2S) = C[C@@H](CN[*:1])C(=O)[*:2]; NMehPhe = CN[C@@H](CCc1ccccc1)C(=O)O; NMeE = CN[C@@H](CCC(=O)O)C(=O)O; Aad = N[C@@H](CCCC(=O)O)C(=O)O; Gly(cPr) = N[C@H](C(=O)O)C1CC1; NMeK = CN[C@@H](CCCCN)C(=O)O; NMeDap = CN[C@@H](CN)C(=O)O; Tfa = O=C(C(F)(F)F)*

Experiments:
mouse HER2 (23-653) = mouse HER2 (23-653) (Mus musculus, UniProt P70424); assay: TR-FRET competition assay for peptide potency, mouse HER2; assay type: binding; set-up: mouse HER2 (23-653) using a Cy5 labeled peptide as a probe; made in house; host or cells: mammalian cells; details: TR-FRET competition with Cy5 labeled peptide probe, 0.1 nM mouse HER2, 24 h incubation; read-out: moHER2 TR-FRET IC50
Protocol: Both proteins containing a His-, Avi-tag and biotin in Nterminus, were expressed in mammalian cells and produced in house. […] Standard assay conditions consist of 20 uL total volume in white 384-well plates (Greiner), in 10 mM HEPES buffer containing 150 mM NaCl, 3 mM EDTA, 0.05% Tween20 and 1% final DMSO. […] The ratiometric FRET assay readout is calculated from the ratio of the raw data of the two distinct fluorescence signals measured in time resolved mode (fluorescence 665 nm/fluorescence 620 nm). IC50 values were calculated with the standard Novartis in-house assay data analysis software (Helios software application, Novartis Institutes for BioMedical Research, unpublished) using the methods described in Comput. Methods. Programs. Biomed. 2006, 82, 31-37 (regression algorithms for nonlinear dose-response curve fitting).

human HER2 (23-652) = human HER2 (23-652) (Homo sapiens, UniProt P04626); assay: Surface plasmon resonance (SPR) for assessment of peptide affinity, human HER2; assay type: binding; set-up: towards human HER2 (23-652) and mouse HER2 (23-653); made in house
Protocol: Each protein was immobilized either onto a SA sensorchip (Cytiva, BR-1005-31) or CM5 sensorchip (Cytiva, BR-1005-30) to a density of 800-2000 RU. […] For the assay setup the same conditions (flow rate, running buffer, peptide dilution) as described above were used. In a first step the Anti Fc IgG Ab (from Human Antibody Capture Kit, Ref. 29234600, Cytiva) was diluted into acetate pH 5.0 at 25 ug/mL and immobilized at a flow rate of 10 uL/min over 360 s to reach a density around 6000 RU. […] The peptides were tested with an association time of 280 s followed by a dissociation time of 3000 s at a flow rate of 30 uL/min. The regeneration was done using 3 M magnesium chloride regeneration solution as obtained with a contact time of 30 s at a flow rate of 10 uL/min. Curve fitting was performed using the BiacoreTM 8K evaluation software.

[1] = SPR, human HER2 extracellular domain, 25° C., 1:1 binding model, read-out: huHER2-SPR-ONC KD

| SMILES | pIC50 (mouse HER2 (23-653)) | pKd (human HER2 (23-652); [1]) | pKd (human HER2 (23-652)) |
| --- | --- | --- | --- |
| CC(=O)N[C@H]1CCCC(=O)NC[C@@H](C(=O)N(C)[C@@H](Cc2ccc(F)cc2)C(N)=O)N(C)C(=O)[C@H](C2CC2)NC(=O)[C@H](Cc2c[nH]c3ccccc23)NC(=O)[C@H](Cc2c[nH]c3ccc(O)cc23)NC(=O)[C@H](CCCCNC(=O)C(F)(F)F)N(C)C(=O)[C@H](CCc2ccccc2)N(C)C(=O)[C@H](CO)NC(=O)[C@H](Cc2ccc(O)cc2)NC1=O [Example A4, (3S,6S,9S,12S,15S,18S,21S,24S,27S)-9-((1H-indol-3-yl)methyl)-27-acetamido-N-((S)-1-amino-3-(4-fluorophenyl)-1-oxopropan-2-yl)-6-cyclopropyl-12-((5-hydroxy-1H-indol-3-yl)methyl)-24-(4-hydroxybenzyl)-21-(hydroxymethyl)-N,4,16,19-tetramethyl-5,8,11,14,17,20,23,26,31-nonaoxo-18-phenethyl-15-(4-(2,2,2-trifluoroacetamido)butyl)-1,4,7,10,13,16,19,22,25-nonaazacyclohentriacontane-3-carboxamide] (Ac-[Aad]YS[NMehPhe][NMeK](Tfa)[Trp(5-OH)]W[Gly(cPr)][NMeDap][NMePhe(4-F)]-NH2; lactam 1-9) | 7.54 | 8.05 |  |
| CC[N+]1=C(/C=C/C=C/C=C2/N(CCCCCC(=O)NCCOCCOCCOCCOCCOCCOCCOCCOCCOCCOCCC(=O)NCCCC[C@H](NC(=O)[C@H](Cc3ccc(F)cc3)N(C)C(=O)[C@@H]3CNC(=O)CCC[C@H](NC(C)=O)C(=O)N[C@@H](Cc4ccc(O)cc4)C(=O)N[C@@H](CO)C(=O)N(C)[C@@H](CCc4ccccc4)C(=O)N(C)[C@@H](CCCCNC(C)=O)C(=O)N[C@@H](Cc4c[nH]c5ccc(O)cc45)C(=O)N[C@@H](Cc4c[nH]c5ccccc45)C(=O)N[C@@H](C4CC4)C(=O)N3C)C(N)=O)c3ccc(S(=O)(=O)O)cc3C2(C)C)C(C)(C)c2cc(S(=O)(=O)[O-])ccc21 [Example D7] |  |  | > 10.00 |
| CC(=O)N[C@H]1CCCC(=O)NC[C@@H](C(=O)N(C)[C@@H](Cc2ccc(F)cc2)C(=O)N[C@@H](CCCCNC(=O)CN2CCN(CC(=O)O)CCN(CC(=O)O)CCN(CC(=O)O)CC2)C(N)=O)N(C)C(=O)[C@H]([C@H](C)O)NC(=O)[C@H](Cc2c[nH]c3ccccc23)NC(=O)[C@H](Cc2c[nH]c3ccc(O)cc23)NC(=O)[C@H](CCCCNC(=O)CCO)N(C)C(=O)[C@H](CCc2ccccc2)N(C)C(=O)[C@H](CO)NC(=O)[C@H](Cc2ccc(O)cc2)NC1=O [Example C22] |  | 9.30 |  |
| CC[N+]1=C(/C=C/C=C/C=C2/N(CCCCCC(=O)NCCCC[C@H](NC(=O)[C@H](Cc3ccc(F)cc3)N(C)C(=O)[C@@H]3CNC(=O)CC[C@H](NC(C)=O)C(=O)N[C@@H](Cc4ccc(O)cc4)C(=O)N[C@@H](CO)C(=O)N(C)[C@@H](CCc4ccccc4)C(=O)N(C)[C@@H](CCCCNC(C)=O)C(=O)N[C@@H](Cc4c[nH]c5ccc(O)cc45)C(=O)N[C@@H](Cc4c[nH]c5ccccc45)C(=O)N[C@@H]([C@H](C)O)C(=O)N3C)C(N)=O)c3ccc(S(=O)(=O)O)cc3C2(C)C)C(C)(C)c2cc(S(=O)(=O)O)ccc21 [Example D4] |  |  | 9.40 |
| CC(=O)NCCCC[C@H]1C(=O)N[C@@H](Cc2c[nH]c3ccc(O)cc23)C(=O)N[C@@H](Cc2c[nH]c3ccccc23)C(=O)N[C@@H](C2CC2)C(=O)N(C)[C@H](C(=O)N(C)[C@@H](Cc2ccc(F)cc2)C(=O)N[C@@H](CCCCNC(=O)CN2CCN(CC(=O)O)CCN(CC(=O)O)CCN(CC(=O)O)CC2)C(N)=O)CNC(=O)CCC[C@H](NC(C)=O)C(=O)N[C@@H](Cc2ccc(O)cc2)C(=O)N[C@@H](CO)C(=O)N(C)[C@@H](CCc2ccccc2)C(=O)N1C [Example C29] | 9.70 |  |  |

The next lines start with results.

| pIC50 (mouse HER2 (23-653)) | pKd (human HER2 (23-652); [1]) | SMILES | pKd (human HER2 (23-652)) |
| --- | --- | --- | --- |
| 8.64 | 9.00 | CC(=O)NCCCC[C@H]1C(=O)N[C@@H](Cc2c[nH]c3ccc(O)cc23)C(=O)N[C@@H](Cc2c[nH]c3ccccc23)C(=O)N[C@@H](C2CC2)C(=O)N(C)[C@H](C(=O)N(C)[C@@H](Cc2ccc(F)cc2)C(N)=O)CNC(=O)CCC[C@H](NC(C)=O)C(=O)N[C@@H](Cc2ccc(O)cc2)C(=O)N[C@@H](CO)C(=O)N(C)[C@@H](CCc2cccc(Cl)c2)C(=O)N1C [Example A8, (3S,6S,9S,12S,15S,18S,21S,24S,27S)-9-((1H-indol-3-yl)methyl)-27-acetamido-15-(4-acetamidobutyl)-N-((S)-1-amino-3-(4-fluorophenyl)-1-oxopropan-2-yl)-18-(3-chlorophenethyl)-6-cyclopropyl-12-((5-hydroxy-1H-indol-3-yl)methyl)-24-(4-hydroxybenzyl)-21-(hydroxymethyl)-N,4,16,19-tetramethyl-5,8,11,14,17,20,23,26,31-nonaoxo-1,4,7,10,13,16,19,22,25-nonaazacyclohentriacontane-3-carboxamide] (Ac-[Aad]YS[X9][NMeK](Ac)[Trp(5-OH)]W[Gly(cPr)][NMeDap][NMePhe(4-F)]-NH2; lactam 1-9) |  |
|  | > 10.00 | CC[N+]1=C(/C=C/C=C/C=C2/N(CCCCCC(=O)NCCCC[C@H](NC(=O)[C@H](Cc3ccc(F)cc3)N(C)C(=O)[C@@H]3CNC(=O)CCC[C@H](NC(C)=O)C(=O)N[C@@H](Cc4ccc(O)cc4)C(=O)N[C@@H](CO)C(=O)N(C)[C@@H](CCc4ccccc4)C(=O)N(C)[C@@H](CCCCNC(C)=O)C(=O)N[C@@H](Cc4c[nH]c5ccc(O)cc45)C(=O)N[C@@H](Cc4c[nH]c5ccccc45)C(=O)N[C@@H](C4CC4)C(=O)N3C)C(N)=O)c3ccc(S(=O)(=O)O)cc3C2(C)C)C(C)(C)c2cc(S(=O)(=O)[O-])ccc21 [Example D1] |  |
|  | 10.00 | CC[N+]1=C(/C=C/C=C/C=C2/N(CCCCCC(=O)NCCOCCOCCOCCOCCOCCOCCOCCOCCOCCOCCC(=O)N[C@H]3CCCC(=O)NC[C@@H](C(=O)N(C)[C@@H](Cc4ccc(F)cc4)C(=O)N[C@@H](CCCCNC(=O)CN4CCN(CC(=O)O)CCN(CC(=O)O)CCN(CC(=O)O)CC4)C(N)=O)N(C)C(=O)[C@H](C4CC4)NC(=O)[C@H](Cc4c[nH]c5ccccc45)NC(=O)[C@H](Cc4c[nH]c5ccc(O)cc45)NC(=O)[C@H](CCCCNC(C)=O)N(C)C(=O)[C@H](CCc4ccccc4)N(C)C(=O)[C@H](CO)NC(=O)[C@H](Cc4ccc(O)cc4)NC3=O)c3ccc(S(=O)(=O)O)cc3C2(C)C)C(C)(C)c2cc(S(=O)(=O)[O-])ccc21 [Example D6] |  |
| 8.00 | 8.01 | CC(=O)NCCCC[C@H]1C(=O)N[C@@H](Cc2c[nH]c3ccc(O)cc23)C(=O)N[C@@H](Cc2c[nH]c3ccccc23)C(=O)N[C@@H](C2CC2)C(=O)N(C)[C@H](C(=O)N(C)[C@@H](Cc2ccc(F)cc2)C(N)=O)CCC(=O)NC[C@H](C)C(=O)N[C@@H](Cc2ccc(O)cc2)C(=O)N[C@@H](CO)C(=O)N(C)[C@@H](CCc2ccccc2)C(=O)N1C [Example A22, (3S,6S,9S,12S,15S,18S,21S,24S,30S)-6-((1H-indol-3-yl)methyl)-12-(4-acetamidobutyl)-N-((S)-1-amino-3-(4-fluorophenyl)-1-oxopropan-2-yl)-3-cyclopropyl-9-((5-hydroxy-1H-indol-3-yl)methyl)-21-(4-hydroxybenzyl)-18-(hydroxymethyl)-N,1,13,16,24-pentamethyl-2,5,8,11,14,17,20,23,27-nonaoxo-15-phenethyl-1,4,7,10,13,16,19,22,26-nonaazacyclotriacontane-30-carboxamide] ([β2hAla(2S)]YS[NMehPhe][NMeK](Ac)[Trp(5-OH)]W[Gly(cPr)][NMeE][NMePhe(4-F)]-NH2; lactam N-9) |  |
